Measured values reported in patent EP4741383A1, “COMPOUND AND USE THEREOF AS ANTI-CANCER DRUG” (Tyligand Bioscience (Shanghai) Limited, priority 2023, dated 2025).

Legend:
HCT116 = test: CellTiter-Glo cell proliferation inhibition, HCT116; format: cell-based; conditions: Homo sapiens, HCT-116; HCT116 (colorectal cancer cell line), 72 hours; read-out: Example IC50 (µM) HCT116
Text: (§1) This experiment used the CellTiter-Glo® Luminescent Cell Viability Assay kit from Promega to evaluate the inhibitory activity of the disclosed compounds on the proliferation of the following cell lines: 4T1 (mouse breast cancer cell line), A20 (mouse B-cell lymphoma cell line), A2780 (human ovarian cancer cell line), AsPC-1 (pancreatic cancer cell line), B16F10 (mouse melanoma cell line), BT549 (human breast cancer cell line), CT26 (mouse colon cancer cell line), EMT6 (mouse breast cancer cell line), HCT116 (colorectal cancer cell line), Jurket (acute leukemia cell line), KP-4 (pancreatic cancer cell line), LL/2 (mouse lung cancer cell line), MCF7 (breast cancer cell line), […] NCI-H358 (lung cancer cell line), NCI-H727 (gastric cancer cell line), NCI-1944 (lung cancer cell line), Pan 04.03 (pancreatic cancer cell line), SK-BR-3 (breast cancer cell line), THP-1 (leukemia cell line), TOV21G (ovarian cancer cell line), U87MG (glioblastoma cell line), and UM-UC-a (bladder cancer cell line).
(§2) All cell lines were purchased from Nanjing Kebai Biotechnology Co., Ltd. The following materials were also used in the experiment: RPMI-1640 media (HyClone, catalog number #SH30022.01), McCoy's 5A media (Thermo Fisher, catalog number #16600-082), MCDB 105 media (Sigma, catalog number #117-500), Medium 199 (Thermo Fisher, catalog number #11150-059), MEM media (Thermo Fisher, catalog number #11095-080), DMEM media (HyClone, catalog number #SH30027.01), fetal bovine serum (FBS) (ExCell, catalog number # M4530), Sodium Pyruvate (100Mm) (Thermo Fisher, catalog number #11360-070), and MEM NEAA (100X) (Thermo Fisher). […]
(§3) Cells were cultured according to the instructions provided by the cell supplier (Nanjing Kebai Biotechnology Co., Ltd.). […] Suspension or adherent cells were collected, and cell viability was determined using the trypan blue exclusion method, ensuring that cell viability was above 90%. […]

SK-BR-3 = test: CellTiter-Glo cell proliferation inhibition, SK-BR-3; format: cell-based; conditions: Homo sapiens; SK-BR-3 (breast cancer cell line), 72 hours; read-out: Example IC50 (µM) SK-BR-3
Text: as §1, §2, §3

## O=C(Nc1ccc(-c2csc(CO)c2)cc1)C(=O)Nc1ccc(-c2cc3cc(F)c(-c4nnn[nH]4)cc3n2C2CCC2)cc1 [Example 1]
HCT116
  IC50: 0.111 µM
SK-BR-3
  IC50: 0.14 µM

## CC1(n2c(-c3ccc(NC(=O)C(=O)Nc4ccc(N5CCC6(CCOC6)CC5)cc4)cc3)cc3cc(F)c(-c4nnn[nH]4)cc32)CCC1 [Example 68]
HCT116
  IC50: 0.078 µM
SK-BR-3
  IC50: 0.057 µM

## O=C(Nc1ccc(-c2cc3cc(F)c(-c4nnn[nH]4)cc3n2C2CCC2)cc1)C(=O)Nc1ccc(N2CCC3(CCC(O)C3)CC2)cc1 (stereo not drawn) [Example 100]
HCT116
  IC50: 0.044 µM
SK-BR-3
  IC50: 0.044 µM
